Square brackets hold non-standard residues; d marks the D form. Peptide text beside a SMILES is read from it. * marks the point of attachment. X1 = CN1CC[C@]23c4c5ccc(O)c4O[C@H]2C(NCCSC2CC(=O)N(CCCCCCN4C(=O)CC(*)C4=O)C2=O)CC[C@@]3(O)[C@H]1C5; Hyp = O=C(O)[C@@H]1C[C@@H](O)CN1
Experiments:
BK2 -receptor = target: T1, BK2 -receptor (Rattus norvegicus, UniProt P25023); test: rat uterus assay of bradykinin antagonist (BKAn) activity; format: cell-based; details: bradykinin induced uterine contraction
T1 construct: BKAn activity (pA2) was assessed using the rat uterus preparation; from tissue; host or cells: rat uterus
T1 sequence (P25023 1-396): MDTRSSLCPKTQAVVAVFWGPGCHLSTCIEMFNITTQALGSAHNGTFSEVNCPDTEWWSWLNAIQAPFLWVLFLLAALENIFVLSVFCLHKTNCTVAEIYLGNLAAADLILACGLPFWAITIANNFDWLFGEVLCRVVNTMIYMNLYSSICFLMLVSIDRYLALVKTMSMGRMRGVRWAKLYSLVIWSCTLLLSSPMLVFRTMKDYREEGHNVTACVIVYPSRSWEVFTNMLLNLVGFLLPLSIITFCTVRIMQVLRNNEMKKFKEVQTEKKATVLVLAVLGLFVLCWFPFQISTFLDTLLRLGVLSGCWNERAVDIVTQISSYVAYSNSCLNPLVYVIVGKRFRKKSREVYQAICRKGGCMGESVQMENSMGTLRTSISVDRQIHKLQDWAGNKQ

[1] = target: T2, purified human neutrophil elastase (HNE) (Homo sapiens, UniProt P08246); test: neutrophil elastase inhibition with chromogenic substrate MOS-AAPV-pNA; format: biochemical; details: MOS-AAPV-pNA 0.5 mM, HNE 10-20 nM, pH 7.5, 25 C; read-out: Ki^ss (HNE)
T2 sequence (P08246 30-247 limits assumed): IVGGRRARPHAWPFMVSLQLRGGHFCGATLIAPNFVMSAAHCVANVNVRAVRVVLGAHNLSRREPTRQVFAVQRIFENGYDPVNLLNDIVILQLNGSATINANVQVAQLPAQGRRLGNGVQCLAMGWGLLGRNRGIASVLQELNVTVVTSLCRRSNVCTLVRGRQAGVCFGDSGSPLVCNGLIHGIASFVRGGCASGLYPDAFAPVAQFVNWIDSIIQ

cyclooxygenase = test: rat lung parenchymal strips challenged with arachidonic acid; format: cell-based; details: contraction in response to exogenously applied arachidonic acid
Source text: As mentioned previously, for the COI to work it may need to be dissociated from the BKAn so as to allow for its intracellular penetration. Therefore, in order to evaluate the functional activity of a BKAn/COI heterodimer, CP-0460 was exposed to rat lung parenchymal strips which were then challenged with arachidonic acid. This tissue is known to contain both non-specific esterase activity as well as to convert arachidonic acid to thromboxane (via a cyclooxygenase dependent pathway) which is then ultimately responsible for the smooth muscle contraction observed in this assay.

[2] = tested on: mice injected in the hind limb foot pad with formalin; test: mouse formalin test (inflammatory and neurogenic pain, hind limb licking); format: in vivo; details: for narcotic / behavioral side effects observed in the formalin test: oxymorphone at highest doses 0.9 and 3.0 umoles/kg, CP-0494 over several hours
Description: In order to test the activity of these compounds in vivo, a model of inflammatory and neurogenic pain was used. This model measures the behavioral responses of mice injected in the hind limb foot pad with 50 ul of formalin. Control mice (open circles) show a characteristic bi-phasic response to the injected formalin wherein there is a short lasting initial response followed by a quiescent period which is then followed by a sustained period of hind limb licking. The licking behavior is interpreted to mean that the limb is irritated and painful. The greater the time spent licking, the more painful the stimulus.

[3] = freshly obtained normal human plasma; details: 37° C.

Compound	pA2 --Rat Uterus (BK2 -receptor)	narcotic / behavioral side effects observed in the formalin test [2]	other results
CC(C)(C)c1ccc(C(C)(C)C(=O)Oc2ccc(S(=O)(=O)CCCC(=O)O)cc2)cc1 [CE-1218, 4-(3'-carboxy-propylsulfonyl)phenyl 4-tert-butylphenylisobutyrate]	inactive		Ki [1]: 10.5 nM
COc1ccc2c(c1)c(CC(=O)O)c(C)n2C(=O)c1ccc(Cl)cc1 [indomethacin]	no effect		log dose ratio shift (cyclooxygenase): 0.998±0.425
CN1CC[C@]23c4c5ccc(O)c4O[C@H]2C(=O)CC[C@@]3(O)[C@H]1C5 [oxymorphone]		significant behavioral obtundation resulting in catalepsy and frank respiratory depression	effect on licking behavior in both phases of the formalin test ([2]; 50 ul formalin in hind limb foot pad): reduces both phases of the licking behavior
DR-R-P-J-G-F-C-DF-L-R			cleaved bond [3]: Leu8-Arg9
CC(C)C[C@H](NC(=O)[C@@H](Cc1ccccc1)NC(=O)[C@H](CSC1CC(=O)N(CCCCCCN2C(=O)CC(SCCNC3CC[C@@]4(O)[C@H]5Cc6ccc(O)c7c6[C@@]4(CCN5C)[C@H]3O7)C2=O)C1=O)NC(=O)[C@H](Cc1ccccc1)NC(=O)CNC(=O)[C@@H]1C[C@@H](O)CN1C(=O)[C@@H]1CCCN1C(=O)[C@H](CCCNC(=N)N)NC(=O)[C@H](N)CCCNC(=N)N)C(=O)N[C@@H](CCCNC(=N)N)C(=O)O (some centres unmarked) [CP-0494] (H-[dR]RP[Hyp]GFC(X1)[dF]LR-OH)		no observable narcotic effects	

Reference: patent US6075120A (priority 1995, dated 2000)
